# Assay results taken from patent publication US8962641B2, “Pyrimidine-substituted pyrrolidine derivatives, pharmaceutical compositions and uses thereof” (Boehringer Ingelheim International GmbH, priority 2013, dated 2015).
# pIC50: −log10 of the molar value.
# Target: human ACC2 (Homo sapiens (Human), UniProt O00763)
# Test: ACC2 assay (spectrophotometric 384 well assay, NADH-linked kinetic method)
# Format: biochemical
# Details: hACC2 construct lacking 128 N-terminal amino acids; coupled lactate dehydrogenase/pyruvate kinase reaction, 340 nm, 25° C.
# In short: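 Baculovirus/insect-cell human ACC2, anion-exchange purified; ADP formation coupled to pyruvate kinase/lactate dehydrogenase, NADH loss followed at 340 nm, 25° C, 15 min. Final 200 μM NADH and acetyl-CoA, 500 uM ATP; vehicle and no-acetyl-CoA wells set 100% and 0%.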
# Chain of human ACC2 (O00763 129-2458): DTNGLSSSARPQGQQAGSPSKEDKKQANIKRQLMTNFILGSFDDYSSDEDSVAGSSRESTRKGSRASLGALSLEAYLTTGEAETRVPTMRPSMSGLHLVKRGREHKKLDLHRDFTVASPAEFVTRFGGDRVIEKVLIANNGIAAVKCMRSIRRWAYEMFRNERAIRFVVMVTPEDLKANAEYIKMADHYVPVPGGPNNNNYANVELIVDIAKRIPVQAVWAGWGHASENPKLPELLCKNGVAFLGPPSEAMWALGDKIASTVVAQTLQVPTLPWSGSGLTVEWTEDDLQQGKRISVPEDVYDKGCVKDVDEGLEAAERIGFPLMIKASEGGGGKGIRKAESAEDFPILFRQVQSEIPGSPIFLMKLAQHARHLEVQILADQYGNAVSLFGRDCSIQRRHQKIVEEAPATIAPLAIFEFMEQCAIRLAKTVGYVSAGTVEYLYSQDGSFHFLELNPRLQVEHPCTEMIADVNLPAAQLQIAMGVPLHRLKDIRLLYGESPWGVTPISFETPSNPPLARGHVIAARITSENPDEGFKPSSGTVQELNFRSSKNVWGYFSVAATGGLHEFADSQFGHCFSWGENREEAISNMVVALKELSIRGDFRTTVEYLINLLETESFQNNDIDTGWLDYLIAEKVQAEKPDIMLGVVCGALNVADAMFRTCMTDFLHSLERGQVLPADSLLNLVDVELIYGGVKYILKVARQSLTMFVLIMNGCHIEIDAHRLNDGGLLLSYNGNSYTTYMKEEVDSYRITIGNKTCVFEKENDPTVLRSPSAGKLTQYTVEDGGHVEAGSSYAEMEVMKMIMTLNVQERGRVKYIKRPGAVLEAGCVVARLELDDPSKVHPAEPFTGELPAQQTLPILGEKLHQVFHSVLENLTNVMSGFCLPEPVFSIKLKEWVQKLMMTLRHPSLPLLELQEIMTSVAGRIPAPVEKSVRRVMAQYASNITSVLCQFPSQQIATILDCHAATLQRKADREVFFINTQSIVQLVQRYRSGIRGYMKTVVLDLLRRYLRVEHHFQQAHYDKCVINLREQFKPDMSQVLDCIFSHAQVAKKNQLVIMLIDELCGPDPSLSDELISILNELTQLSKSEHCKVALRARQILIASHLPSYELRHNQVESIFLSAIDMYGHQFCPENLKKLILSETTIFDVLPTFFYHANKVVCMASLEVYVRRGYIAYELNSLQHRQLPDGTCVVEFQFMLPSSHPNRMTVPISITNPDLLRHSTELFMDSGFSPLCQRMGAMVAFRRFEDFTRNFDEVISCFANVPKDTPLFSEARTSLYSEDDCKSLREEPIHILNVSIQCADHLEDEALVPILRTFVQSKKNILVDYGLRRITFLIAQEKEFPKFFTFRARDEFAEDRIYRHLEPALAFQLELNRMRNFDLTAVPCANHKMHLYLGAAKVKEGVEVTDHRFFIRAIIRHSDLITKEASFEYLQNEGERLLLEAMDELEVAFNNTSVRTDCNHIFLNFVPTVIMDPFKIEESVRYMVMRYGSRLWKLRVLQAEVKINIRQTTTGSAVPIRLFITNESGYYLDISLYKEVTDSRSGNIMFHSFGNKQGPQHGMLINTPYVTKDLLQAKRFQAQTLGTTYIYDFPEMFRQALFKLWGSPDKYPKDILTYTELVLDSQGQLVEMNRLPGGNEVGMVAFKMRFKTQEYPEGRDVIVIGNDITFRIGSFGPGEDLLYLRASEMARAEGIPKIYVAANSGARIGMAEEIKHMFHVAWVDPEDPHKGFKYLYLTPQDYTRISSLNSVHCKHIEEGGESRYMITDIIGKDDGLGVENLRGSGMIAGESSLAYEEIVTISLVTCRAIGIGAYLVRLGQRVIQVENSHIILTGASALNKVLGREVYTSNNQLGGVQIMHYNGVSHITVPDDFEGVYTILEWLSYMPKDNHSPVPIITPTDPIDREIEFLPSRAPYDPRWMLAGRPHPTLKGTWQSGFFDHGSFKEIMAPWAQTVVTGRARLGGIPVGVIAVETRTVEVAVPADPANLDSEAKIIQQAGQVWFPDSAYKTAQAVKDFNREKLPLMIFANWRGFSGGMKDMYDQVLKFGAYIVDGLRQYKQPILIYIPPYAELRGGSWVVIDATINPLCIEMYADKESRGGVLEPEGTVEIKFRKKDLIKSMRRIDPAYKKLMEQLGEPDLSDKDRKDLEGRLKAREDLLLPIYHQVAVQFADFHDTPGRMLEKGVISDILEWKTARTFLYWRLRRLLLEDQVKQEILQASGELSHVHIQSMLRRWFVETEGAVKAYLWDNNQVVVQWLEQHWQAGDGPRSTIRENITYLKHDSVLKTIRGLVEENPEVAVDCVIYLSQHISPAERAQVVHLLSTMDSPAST
row,SMILES,pIC50
1,CCC(=O)N[C@@H](C)c1ccc(OC2CCN(c3ccnc(N(C)CC)n3)C2)cc1 (stereo partly shown) [Example 2.13],7.07
2,CCCOc1ncnc(N2CC[C@@H](Oc3ccc([C@H](C)NC(C)=O)cc3)C2)c1F [Example 7.19],7.19
3,CC(=O)N[C@@H](C)c1ccc(O[C@@H]2CCN(c3ccnc(N(C)CC4CC4)n3)C2)cc1 [Example 8.3],6.90
4,CCN(C)c1ncc(Br)c(N2CC[C@@H](Oc3ccc([C@H](C)NC(C)=O)cc3)C2)n1 [Example 8.57],6.00
5,CCC(=O)Nc1nc(C)c(C(=O)N[C@@H](C)c2ccc(O[C@@H]3CCN(c4ncc(OCC5CC5(F)F)cn4)C3)cc2)s1 (stereo partly shown) [Example 1.4],7.00
6,CC(=O)N[C@@H](C)c1ccc(O[C@@H]2CCN(c3ncnc(OC4CCOCC4)c3F)C2)cc1 [Example 7.37],6.60
7,CC(=O)N[C@@H](C)c1ccc(O[C@@H]2CCN(c3nc(N(C)CC(C)(C)O)ncc3F)C2)cc1 [Example 8.28],6.09
8,CCN(C)c1nccc(N2CC[C@@H](Oc3ccc([C@H](C)NC(C)=O)cc3)C2)n1 [Example 8.21],6.72
9,COc1c(OCC2CC2)ncnc1N1CC[C@@H](Oc2ccc([C@H](C)NC(=O)c3oc(NC(C)=O)nc3C)cc2)C1 [Example 2.32],6.09
10,CCN(C)c1nccc(N2CCC(Oc3ccc([C@H](C)NC(=O)c4cnoc4C)cc3)C2)n1 (stereo partly shown) [Example 2.18],6.89
11,CC(=O)N[C@@H](C)c1ccc(O[C@@H]2CCN(c3nc(N(C)C4CCCC4)ncc3F)C2)cc1 [Example 8.11],7.24
12,CC(=O)N[C@@H](C)c1ccc(O[C@@H]2CCN(c3nc(N(C)C(C)C)ncc3F)C2)cc1 [Example 8.63],7.15
13,CC(=O)N[C@@H](C)c1ccc(O[C@@H]2CCN(c3nc(OCC4(C)CC4)ncc3F)C2)cc1 [Example 7.18],6.25
14,CC(=O)N[C@@H](C)c1ccc(O[C@@H]2CCN(c3ncc(OCCC4CC4)cn3)C2)cc1 [Example 6.19],6.35
15,C[C@H](NC(=O)c1cn[nH]c1)c1ccc(OC2CCN(c3ncnc(OCC4CC4)c3F)C2)cc1 (stereo partly shown) [Example 2.20],7.28
16,CCN(C)c1ncc(C)c(N2CC[C@@H](Oc3ccc([C@H](C)NC(C)=O)cc3)C2)n1 [Example 8.53],6.34
17,CCNC(=O)N[C@@H](C)c1ccc(O[C@@H]2CCN(c3nc(N4CCOCC4)ncc3F)C2)cc1 [Example 3.20],6.24
18,CC(=O)N[C@@H](C)c1ccc(O[C@@H]2CCN(c3nc(OC4CCC4)ncc3F)C2)cc1 [Example 7.11],6.43
19,CC(=O)N[C@@H](C)c1ccc(O[C@@H]2CCN(c3ccnc(N4CCCC4)n3)C2)cc1 [Example 8.5],6.39
20,C[C@H](NC(=O)N(C)C)c1ccc(O[C@H]2CCN(c3nc(N4CCOCC4)ncc3F)C2)cc1 [Example 3.18],6.95
21,CC(=O)N[C@@H](C)c1ccc(O[C@@H]2CCN(c3nc(N4CCCCC4)ncc3F)C2)cc1 [Example 8.8],7.35
22,CCCOc1ncnc(N2CC[C@@H](Oc3ccc([C@H](C)NC(C)=O)cc3)C2)c1C [Example 7.23],6.92
23,CCN(C)c1ncc(Cl)c(N2CC[C@@H](Oc3ccc([C@H](C)NC(C)=O)cc3)C2)n1 [Example 8.56],7.22
24,CC(=O)N[C@@H](C)c1ccc(O[C@@H]2CCN(c3nc(N(C)C)ncc3Cl)C2)cc1 [Example 8.51],6.91
25,COc1c(OCC2CC2(F)F)ncnc1N1CC[C@@H](Oc2ccc([C@H](C)NC(C)=O)cc2)C1 (stereo partly shown) [Example 7.56],7.12
26,CC(=O)N[C@@H](C)c1ccc(O[C@@H]2CCN(c3ncnc(OC4CCCC4)c3Cl)C2)cc1 [Example 7.53],7.49
27,CC(=O)N[C@@H](C)c1ccc(OC2CCN(c3cnc(OC4CCC4)nc3)C2)cc1 (stereo partly shown) [Example 1.2],6.25
28,CC(=O)N[C@@H](C)c1ccc(O[C@@H]2CCN(c3ncnc(OCC4CC4)c3C)C2)cc1 [Example 7.25],7.17

# More lines, now with the values ahead:
row,pIC50,SMILES
1,6.98,CC(=O)N[C@@H](C)c1ccc(O[C@@H]2CCN(c3ncnc(NC4CCCC4)c3Cl)C2)cc1 [Example 8.308]
2,6.67,C[C@H](NC(=O)c1cncs1)c1ccc(O[C@@H]2CCN(c3ccnc(N(C)CCC#N)n3)C2)cc1 [Example 8.98]
3,7.10,C[C@H](NC(=O)c1cncs1)c1ccc(O[C@@H]2CCN(c3ccnc(N(C)CC(F)F)n3)C2)cc1 [Example 8.97]
4,6.76,CC(=O)N[C@@H](C)c1ccc(O[C@@H]2CCN(c3nc(N4CCC5(CC5)C4)ncc3Cl)C2)cc1 [Example 8.276]
5,6.98,CC(=O)N[C@@H](C)c1ccc(O[C@@H]2CCN(c3nc(N(C)C[C@@H]4CCCO4)ncc3Cl)C2)cc1 [Example 8.258]
6,6.14,CC(=O)N[C@@H](C)c1ccc(O[C@@H]2CCN(c3ncnc(N4CCC(CO)C4)c3F)C2)cc1 (stereo partly shown) [Example 8.202]
7,6.01,CC(=O)N[C@@H](C)c1ccc(O[C@@H]2CCN(c3nccc(N4CCC(C)(C)C4)n3)C2)cc1 [Example 8.81]
8,6.34,CC(=O)N[C@@H](C)c1ccc(O[C@@H]2CCN(c3ncnc(N4CC[C@@H](F)C4)c3F)C2)cc1 [Example 8.287]
9,7.00,CC(=O)N[C@@H](C)c1ccc(O[C@@H]2CCN(c3ncnc(N(C)CC4CC4)c3F)C2)cc1 [Example 8.92]
10,7.03,CCC(=O)Nc1nc(C)c(C(=O)N[C@@H](C)c2ccc(O[C@@H]3CCN(c4ncnc(NCC5CC5)c4Cl)C3)cc2)s1 [Example 8.307]
11,6.90,CC(=O)N[C@@H](C)c1ccc(O[C@@H]2CCN(c3nc(N4CCCOCC4)ncc3F)C2)cc1 [Example 8.216]
12,6.74,CCN(c1nccc(N2CC[C@@H](Oc3ccc([C@H](C)NC(C)=O)cc3)C2)n1)C(C)C [Example 8.260]
13,6.99,CC(=O)N[C@@H](C)c1ccc(O[C@@H]2CCN(c3nc(N(C)CC(C)C)ncc3F)C2)cc1 [Example 8.164]
14,6.77,CC(=O)N[C@@H](C)c1ccc(O[C@@H]2CCN(c3nc(N4CCOC(C)(C)C4)ncc3F)C2)cc1 [Example 8.224]
15,6.17,CC(=O)N[C@@H](C)c1ccc(O[C@@H]2CCN(c3ncnc(N4CC5COCC5C4)c3F)C2)cc1 (stereo partly shown) [Example 8.172]
16,7.00,CC(=O)N[C@@H](C)c1ccc(O[C@@H]2CCN(c3ccnc(N4CCC(F)(F)CC4)n3)C2)cc1 [Example 8.207]
17,7.10,CC(=O)N[C@@H](C)c1ccc(O[C@@H]2CCN(c3ncnc(N4CCC(F)(F)C4)c3Cl)C2)cc1 [Example 8.114]
18,6.45,CC(=O)N[C@@H](C)c1ccc(O[C@@H]2CCN(c3ncnc(N4CCOC(C)C4)c3F)C2)cc1 (stereo partly shown) [Example 8.179]
19,6.50,CC(=O)N[C@@H](C)c1ccc(O[C@@H]2CCN(c3nc(N4CCCC(F)(F)C4)ncc3Cl)C2)cc1 [Example 8.189]
20,6.42,CC(=O)N[C@@H](C)c1ccc(O[C@@H]2CCN(c3ncnc(N4CCCC(F)(F)C4)c3F)C2)cc1 [Example 8.161]
21,6.02,COC[C@H](C)N(C)c1nccc(N2CC[C@@H](Oc3ccc([C@H](C)NC(C)=O)cc3)C2)n1 [Example 8.204]

row,pIC50,SMILES
1,6.70,CC(=O)N[C@@H](C)c1ccc(O[C@@H]2CCN(c3ncnc(N(C)CC(C)C)c3F)C2)cc1 [Example 8.268]
2,7.35,CC(=O)N[C@@H](C)c1ccc(O[C@@H]2CCN(c3ncnc(N4CCC5(CC5)C4)c3F)C2)cc1 [Example 8.235]
3,6.64,COC1CCN(c2ncc(F)c(N3CC[C@@H](Oc4ccc([C@H](C)NC(C)=O)cc4)C3)n2)CC1 [Example 8.193]
4,6.97,CC(=O)N[C@@H](C)c1ccc(O[C@@H]2CCN(c3nc(N4CCCCC4)ncc3Cl)C2)cc1 [Example 8.127]
5,6.00,CC(=O)N[C@@H](C)c1ccc(O[C@@H]2CCN(c3nc(N(C)CC(C)(C)O)ncc3Cl)C2)cc1 [Example 8.266]
6,6.83,CC(=O)N[C@@H](C)c1ccc(O[C@@H]2CCN(c3nc(N(C)C(C)C)ncc3Cl)C2)cc1 [Example 8.141]
7,6.76,CO[C@H]1CCN(c2ncc(F)c(N3CC[C@@H](Oc4ccc([C@H](C)NC(C)=O)cc4)C3)n2)C1 [Example 8.259]
8,6.99,CC(=O)N[C@@H](C)c1ccc(O[C@@H]2CCN(c3nc(N4CCC(F)(F)C4)ncc3F)C2)cc1 [Example 8.69]
9,7.28,CC(=O)N[C@@H](C)c1ccc(O[C@@H]2CCN(c3ncnc(N4CCCCC4)c3Cl)C2)cc1 [Example 8.112]
10,6.82,CC(=O)N[C@@H](C)c1ccc(O[C@@H]2CCN(c3ncnc(N4CCCC4C)c3F)C2)cc1 (stereo partly shown) [Example 8.233]
11,6.98,CC(=O)N[C@@H](C)c1ccc(O[C@@H]2CCN(c3nc(N(C)C4CCOCC4)ncc3F)C2)cc1 [Example 8.157]
12,6.61,CCCN(CCC#N)c1nccc(N2CC[C@@H](Oc3ccc([C@H](C)NC(C)=O)cc3)C2)n1 [Example 8.109]
13,6.92,CC(=O)N[C@@H](C)c1ccc(O[C@@H]2CCN(c3nc(N4CCOC(C(F)(F)F)C4)ncc3F)C2)cc1 (stereo partly shown) [Example 8.257]
14,6.31,CC(=O)N[C@@H](C)c1ccc(O[C@@H]2CCN(c3nc(N(C)CC(C)O)ncc3F)C2)cc1 (stereo partly shown) [Example 8.239]
15,6.43,CC(=O)N[C@@H](C)c1ccc(O[C@@H]2CCN(c3nc(N4CCC[C@@H]4C)ncc3Cl)C2)cc1 [Example 8.281]
16,7.07,CC(=O)N[C@@H](C)c1ccc(O[C@@H]2CCN(c3ncnc(N4CCC(C)(C)C4)c3F)C2)cc1 [Example 8.199]
17,7.24,CC(=O)N[C@@H](C)c1ccc(O[C@@H]2CCN(c3nc(N(C)CC4CC4)ncc3Cl)C2)cc1 [Example 8.126]
18,6.58,CC(=O)N[C@@H](C)c1ccc(O[C@@H]2CCN(c3nc(N4CCOCC4)ncc3Cl)C2)cc1 [Example 8.96]
19,6.43,CC(=O)N[C@@H](C)c1ccc(O[C@@H]2CCN(c3ccnc(N(CCC#N)C4CCCC4)n3)C2)cc1 [Example 8.108]
20,7.10,[2H]C([2H])([2H])N(c1ncc(F)c(N2CC[C@@H](Oc3ccc([C@H](C)NC(C)=O)cc3)C2)n1)C([2H])([2H])[2H] [Example 8.65]
21,6.89,CC(=O)N[C@@H](C)c1ccc(O[C@@H]2CCN(c3nc(N4CCOC(C)C4)ncc3F)C2)cc1 (stereo partly shown) [Example 8.274]
